One assay has as its target EZH2 (rPRC2) (Homo sapiens, UniProt Q15910). Nature of the assay: EZH2 assay: rPRC2, biotinylated oligonucleosomes, 3H SAM methyl transfer (FlashPlate scintillation). The assay is classed as biochemical. The conditions noted are these: biotinylated oligonucleosome substrate.
A further assay has as its target Y641N EZH2 (Homo sapiens, UniProt Q15910, Y641N). Nature of the assay: Y641N EZH2 assay: as EZH2 assay, with reconstituted H3K27Me2 oligonucleosomes as substrate. The assay is classed as biochemical.
Assay [1] has as its system H3K27me3 mark in HeLa cells. The experiment in a line: H3K27me3 MSD Hela Assay. The assay is classed as cell-based. The conditions noted are these: Homo sapiens, read-out: H3K27me3_MSD_HeLa_ (EC50). On the procedure: Trypsinized HeLa cells were counted and diluted in 10% DMEM (Life Technologies, Cat. #10569) to 5000 cells/75 μL. Seventy-five […] of cells were place in each well of a 96-well flat-bottomed plate and incubated at 37° C. for 4 hours. Twenty-five μL of test compound (at various concentrations) was added to the cells and incubation continued at 37° C. for 96 hours. Media was then removed and the cells rinsed once with ice cold PBS. Forty μL of ice-cold MSD Buffer AT (10 mM HEPES, pH 7.9, 5 mM MgCl2, 0.25M sucrose, Benzonase (1:10000), 1% Triton X-100 supplemented with fresh 1× Protease Inhibitor cocktail and 1 mM 4-(2-Aminoethyl)benzenesulfonyl fluoride hydrochloride (AEBSF)) was added to each well and the plates placed on ice for 30 minutes. Ten μL of 5M NaCl was then added to each well and incubation on ice continued for another 15 minutes. The material in each well was suspended pipetting up and down and then transferred to a new 96 well plate. The emptied wells were rinsed with 150 uL ice-cold 20 mM Tris pH 7.5, 1 mM EDTA, 1 mM EGTA, supplemented with fresh 1× Protease Inhibitor cocktail and 1 mM AEBSF (“NO salt NO detergent buffer) and transferred to the respective wells in the new plate. Three hundred μL of NO Salt NO detergent buffer was then added to each well of lysates and the plates frozen at −80° C.
On the same day, an appropriate number of MSD standard bind 96-well plates were coated with 30 μL/well of total H3 capture antibody (Millipore. Cat #MAB3422) at 1 μg/mL concentration in PBS. The antibody solution was evenly distributed first by tapping gently on the sides of the plates and then by shaking the plates for a few minutes at 1000 rpm. Antibody coated plates were stored at 4° C. overnight.
The next day the lysates are thawed to RT. The antibody coated MSD plates are washed 3× with TBS-T (Tris-buffered saline (Fisher Scientific, Cat #BP2471-1)+0.2% Tween-20). One-hundred fifty μL of 5% Blocker A in TBS-T is added to each well. The wells are covered and shaken on a shaker at RT for one hour. The Blocker A step is repeated a second time. After removing the blocker, 25 μL of cell lysate is transferred into each antibody coated well. The plates are shaken for 2 hours at RT, the lysate removed and the plates again washed with Blocker A in TBS-T. Twenty-five μL of appropriate freshly prepared antibody mix (including both primary and secondary antibodies) is added to each well and the plates shaken for 1 hour at RT.
Both H3 antibodies were obtained from Cell Signalling (Cat #s 4499 and 9733). The goat anti-rabbit antibody was obtained from Meso-Scale Discovery (Cat #R32AB-1).
The antibody mix was then removed and the wells washed with Blocker A. One hundred-fifty μL of freshly prepared 1×MSD Read Buffer (Meso-Scale Discovery; Cat #R927C-2) was then added to each well and the plates read on a MSD Sector 2400 Plate Reader.
Data was analyzed using Assay Assistant (Constellation Pharmaceuticals In-house product) and Activity Base (IDBS Ltd, Surrey, UK) template. Data files were imported to Assay Assistant and assay conditions were specified. A unique Analysis ID was created and the data files exported to Activity Base. An analysis template was created on Activity Base to measure dose-dependent inhibition of H3K27me3 mark and cell viability respectively. Readout of DMSO wells were used to normalize the data. Resulting curves were fitted using Activity base software Model 205 (IDBS Ltd. Surrey, UK). The data was checked for quality, validated and integrated in excel format using SARview (IDBS Ltd, Surrey, UK).

Where [2] appears, read: EZH2 IC50, wild-type EZH2 (rPRC2).
Where [3] appears, read: Y641N EZH2 IC50, Y641N mutant EZH2, H3K27Me2 oligonucleosome substrate.
Setting [4] is: wild-type EZH2 (rPRC2), read-out: EZH2 IC50.
Setting [5] is: Y641N mutant EZH2, H3K27Me2 oligonucleosome substrate, read-out: Y641N EZH2 IC50.

Read-outs that look alike come from different tables or passages of the source.

Sequence of EZH2 (rPRC2) (Q15910 whole entry): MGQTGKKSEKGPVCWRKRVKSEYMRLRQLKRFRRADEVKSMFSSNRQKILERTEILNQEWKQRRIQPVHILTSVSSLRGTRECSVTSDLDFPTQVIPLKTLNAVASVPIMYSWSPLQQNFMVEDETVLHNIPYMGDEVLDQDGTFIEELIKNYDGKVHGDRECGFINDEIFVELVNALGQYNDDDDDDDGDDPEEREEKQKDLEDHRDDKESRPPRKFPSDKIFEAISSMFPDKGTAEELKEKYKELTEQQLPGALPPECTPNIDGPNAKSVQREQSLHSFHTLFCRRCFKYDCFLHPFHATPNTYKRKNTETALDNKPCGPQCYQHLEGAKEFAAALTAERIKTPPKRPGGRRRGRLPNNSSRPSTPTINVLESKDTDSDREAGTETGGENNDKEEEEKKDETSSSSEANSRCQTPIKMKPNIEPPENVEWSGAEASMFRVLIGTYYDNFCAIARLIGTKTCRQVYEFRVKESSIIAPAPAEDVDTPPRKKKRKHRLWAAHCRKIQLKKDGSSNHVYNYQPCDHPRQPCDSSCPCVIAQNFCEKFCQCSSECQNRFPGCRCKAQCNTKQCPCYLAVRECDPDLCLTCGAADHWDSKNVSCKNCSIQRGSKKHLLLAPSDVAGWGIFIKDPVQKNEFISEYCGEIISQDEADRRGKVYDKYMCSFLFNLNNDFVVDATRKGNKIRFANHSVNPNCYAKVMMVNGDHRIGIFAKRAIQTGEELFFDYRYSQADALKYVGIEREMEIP
Sequence of EZH2 (rPRC2) (O75530 whole entry partner): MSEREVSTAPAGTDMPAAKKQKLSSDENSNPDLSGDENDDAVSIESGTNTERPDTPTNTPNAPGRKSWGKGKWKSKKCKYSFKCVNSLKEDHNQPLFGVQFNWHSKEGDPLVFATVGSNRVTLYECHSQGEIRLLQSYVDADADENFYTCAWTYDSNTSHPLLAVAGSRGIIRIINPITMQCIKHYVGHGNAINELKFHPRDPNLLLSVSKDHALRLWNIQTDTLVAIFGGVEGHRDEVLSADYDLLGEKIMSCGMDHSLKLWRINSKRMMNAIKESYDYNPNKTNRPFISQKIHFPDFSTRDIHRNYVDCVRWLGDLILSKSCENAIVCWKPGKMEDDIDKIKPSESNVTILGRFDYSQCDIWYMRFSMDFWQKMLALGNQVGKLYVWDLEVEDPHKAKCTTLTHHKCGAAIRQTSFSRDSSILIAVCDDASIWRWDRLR
Sequence of EZH2 (rPRC2) (Q15022 whole entry partner): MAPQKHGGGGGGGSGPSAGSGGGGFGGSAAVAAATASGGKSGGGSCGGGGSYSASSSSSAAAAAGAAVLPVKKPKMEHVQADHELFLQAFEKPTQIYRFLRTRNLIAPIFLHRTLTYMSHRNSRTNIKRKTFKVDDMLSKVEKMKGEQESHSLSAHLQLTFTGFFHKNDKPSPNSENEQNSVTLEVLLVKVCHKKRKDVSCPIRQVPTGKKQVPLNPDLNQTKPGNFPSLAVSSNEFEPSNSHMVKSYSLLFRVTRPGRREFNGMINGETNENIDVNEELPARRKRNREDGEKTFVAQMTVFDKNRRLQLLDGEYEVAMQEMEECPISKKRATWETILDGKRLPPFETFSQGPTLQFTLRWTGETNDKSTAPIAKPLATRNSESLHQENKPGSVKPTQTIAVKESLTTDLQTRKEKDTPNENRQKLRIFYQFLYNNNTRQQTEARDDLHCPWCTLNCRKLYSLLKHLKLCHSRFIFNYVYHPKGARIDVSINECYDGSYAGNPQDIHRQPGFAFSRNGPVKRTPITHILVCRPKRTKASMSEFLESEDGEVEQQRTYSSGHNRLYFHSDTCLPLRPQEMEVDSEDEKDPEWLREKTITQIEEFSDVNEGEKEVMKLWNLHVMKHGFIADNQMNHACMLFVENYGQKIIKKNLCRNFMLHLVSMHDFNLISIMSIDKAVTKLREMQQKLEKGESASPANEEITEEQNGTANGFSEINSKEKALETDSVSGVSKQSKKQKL
Sequence of Y641N EZH2 (Q15910 whole entry Y641N): as the sequence (Q15910 whole entry) above, with Y641N counted along it
Sequence of Y641N EZH2 (O75530 whole entry partner): as the sequence (O75530 whole entry partner) above
Sequence of Y641N EZH2 (Q15022 whole entry partner): as the sequence (Q15022 whole entry partner) above

Broadly, the IC50 is the concentration at which inhibition is half-maximal. The EC50 is the midpoint of the concentration-response curve. In the case of `Cc1cc(C)c(CNC(=O)c2c(C)n(C(C)c3cccc(Br)c3)c3ccccc23)c(=O)[nH]1` (racemic) [Compound 171, (±)-1-(1-(3-bromophenyl)ethyl)-N-((4,6-dimethyl-2-oxo-1,2-dihydropyridin-3-yl)methyl)-2-methyl-1H-indole-3-carboxamide], the IC50 on EZH2 (rPRC2) (setting [2]) and against Y641N EZH2 (setting [3]) was less than 100 nM each time. Besides, the EC50 in assay [1] (HeLa, 96 h) is 2000 to 10000 nM.
In the case of `Cc1ccc(C(C)n2c(C)c(C(=O)NCc3c(C)cc(C)[nH]c3=O)c3ccccc32)cc1` (racemic) [Compound 172, (±)-N-((4,6-dimethyl-2-oxo-1,2-dihydropyridin-3-yl)methyl)-2-methyl-1-(1-(p-tolyl)ethyl)-1H-indole-3-carboxamide], the half-inhibitory concentration (IC50) on EZH2 (rPRC2) (setting [2]) was less than 100 nM; on Y641N EZH2 (setting [3]) it was 100 to 1000 nM. Also, the half-maximal effective concentration (EC50) in assay [1] (HeLa, 96 h) lay in the range of 2000 to 10000 nM.
For `Cc1cc(C)c(CNC(=O)c2c(C)n(C(C)c3cccc(Cl)c3)c3ccccc23)c(=O)[nH]1` (racemic) [Compound 181, (±)-1-(1-(3-chlorophenyl)ethyl)-N-((4,6-dimethyl-2-oxo-1,2-dihydropyridin-3-yl)methyl)-2-methyl-1H-indole-3-carboxamide] the same measures were less than 100 nM, less than 100 nM and 400 to 2000 nM.
For `Cc1cc(C)c(COC(=O)c2c(C)n(C3CCc4ccccc43)c3ncccc23)c(=O)[nH]1` (racemic) [Compound 201, (±)-(4,6-dimethyl-2-oxo-1,2-dihydropyridin-3-yl)methyl 1-(2,3-dihydro-1H-inden-1-yl)-2-methyl-1H-pyrrolo[2,3-b]pyridine-3-carboxylate], the IC50 was less than 100 nM at EZH2 (rPRC2) (setting [4]) and 100 to 1000 nM on Y641N EZH2 (setting [5]). Moreover, the concentration for a half-maximal effect (EC50) in assay [1] (HeLa cells, MSD, 96 hours) lay within 400 to 2000 nM.
For `Cc1cc(C)c(CNC(=O)c2c(C)n(C(C)c3ccccc3)c3cnccc23)c(=O)[nH]1` (racemic) [Compound 203, (±)-N-((4,6-dimethyl-2-oxo-1,2-dihydropyridin-3-yl)methyl)-2-methyl-1-(1-phenylethyl)-1H-pyrrolo[2,3-c]pyridine-3-carboxamide], the IC50 on EZH2 (rPRC2) (setting [2]) was less than 100 nM; on Y641N EZH2 (setting [3]), 100 to 1000 nM. In addition, in assay [1] (HeLa, 96 h), the EC50 fell in the range of 2000 to 10000 nM.
Turning to `COCC(C)n1c(C)c(C(=O)NCc2c(OC)cc(C)[nH]c2=O)c2cccnc21` (racemic) [Compound 204, (±)-N-((4-methoxy-6-methyl-2-oxo-1,2-dihydropyridin-3-yl)methyl)-1-(1-methoxypropan-2-yl)-2-methyl-1H-pyrrolo[2,3-b]pyridine-3-carboxamide], the concentration for half-maximal inhibition (IC50) was less than 100 nM against EZH2 (rPRC2) (setting [2]) and 100 to 1000 nM on Y641N EZH2 (setting [3]). In assay [1] (HeLa, 96 h), the concentration for a half-maximal effect (EC50) was 400 to 2000 nM.
As for `COc1cc(C(C)n2c(C)c(C(=O)NCc3c(C)cc(C)[nH]c3=O)c3cccnc32)ccn1` (racemic) [Compound 207, (±)-N-((4,6-dimethyl-2-oxo-1,2-dihydropyridin-3-yl)methyl)-1-(1-(2-methoxypyridin-4-yl)ethyl)-2-methyl-1H-pyrrolo[2,3-b]pyridine-3-carboxamide], the IC50 was less than 100 nM against EZH2 (rPRC2) (setting [2]) and 100 to 1000 nM at Y641N EZH2 (setting [3]). In assay [1] (HeLa, 96 h), the concentration for a half-maximal effect (EC50) lay within 2000 to 10000 nM.
Regarding `Cc1cc(C)c(CNC(=O)c2c(C)n(C(C)c3cccc(S(C)(=O)=O)c3)c3ccccc23)c(=O)[nH]1` (racemic) [Compound 210, (±)-N-((4,6-dimethyl-2-oxo-1,2-dihydropyridin-3-yl)methyl)-2-methyl-1-(1-(3-(methylsulfonyl)phenyl)ethyl)-1H-indole-3-carboxamide], the IC50 against EZH2 (rPRC2) (setting [2]) was less than 100 nM; at Y641N EZH2 (setting [3]), 100 to 1000 nM. The EC50 in assay [1] (HeLa, 96 h) lay in the range of 2000 to 10000 nM.
For `Cc1cc(C)c(CNC(=O)c2c(C)n(C(C)C3CC3)c3ncccc23)c(=O)[nH]1` (racemic) [Compound 211, (±)-1-(1-cyclopropylethyl)-N-((4,6-dimethyl-2-oxo-1,2-dihydropyridin-3-yl)methyl)-2-methyl-1H-pyrrolo[2,3-b]pyridine-3-carboxamide] the same measures were less than 100 nM, 100 to 1000 nM and 400 to 2000 nM.
For `CCOCC(C)n1c(C)c(C(=O)NCc2c(OC)cc(C)[nH]c2=O)c2cccnc21` (racemic) [Compound 212, (±)-1-(1-ethoxypropan-2-yl)-N-((4-methoxy-6-methyl-2-oxo-1,2-dihydropyridin-3-yl)methyl)-2-methyl-1H-pyrrolo[2,3-b]pyridine-3-carboxamide] the same measures were less than 100 nM, 100 to 1000 nM and 400 to 2000 nM.
The like results for `COc1cncc(C(C)n2c(C)c(C(=O)NCc3c(C)cc(C)[nH]c3=O)c3cccnc32)c1` (racemic) [Compound 215, (±)-N-((4,6-dimethyl-2-oxo-1,2-dihydropyridin-3-yl)methyl)-1-(1-(5-methoxypyridin-3-yl)ethyl)-2-methyl-1H-pyrrolo[2,3-b]pyridine-3-carboxamide] were, in that order, 100 to 1000 nM, 1000 to 10000 nM and 2000 to 10000 nM.
Turning to `Cc1cc(C)c(CNC(=O)c2c(C)n(C(C)c3ccn(C)c(=O)c3)c3ccccc23)c(=O)[nH]1` (racemic) [Compound 222, (±)-N-((4,6-dimethyl-2-oxo-1,2-dihydropyridin-3-yl)methyl)-2-methyl-1-(1-(1-methyl-2-oxo-1,2-dihydropyridin-4-yl)ethyl)-1H-indole-3-carboxamide], the half-inhibitory concentration (IC50) on EZH2 (rPRC2) (setting [2]) and against Y641N EZH2 (setting [3]) was 100 to 1000 nM in each case. The EC50 in assay [1] (HeLa, 96 h) was greater than 10000 nM.
For the compound `COCC(C)n1c(C)c(C(=O)NCc2c(OC)cc(C)[nH]c2=O)c2cc(F)ccc21` (racemic) [Compound 230, (±)-5-fluoro-N-((4-methoxy-6-methyl-2-oxo-1,2-dihydropyridin-3-yl)methyl)-1-(1-methoxypropan-2-yl)-2-methyl-1H-indole-3-carboxamide], the half-maximal inhibitory concentration (IC50) at EZH2 (rPRC2) (setting [2]) is less than 100 nM; against Y641N EZH2 (setting [3]), 100 to 1000 nM. Further, the EC50 in assay [1] (HeLa, 96 h) is 400 to 2000 nM.
Turning to `COCC(C)n1c(C)c(C(=O)NCc2c(OC)cc(C)[nH]c2=O)c2ccc(F)cc21` (racemic) [Compound 231, (±)-6-fluoro-N-((4-methoxy-6-methyl-2-oxo-1,2-dihydropyridin-3-yl)methyl)-1-(1-methoxypropan-2-yl)-2-methyl-1H-indole-3-carboxamide], the IC50 is less than 100 nM against EZH2 (rPRC2) (setting [2]) and 100 to 1000 nM against Y641N EZH2 (setting [3]). For the same compound, the EC50 in assay [1] (HeLa, 96 h) was 400 to 2000 nM.
As to `Cc1cc(C)c(CNC(=O)c2c(C)n(C(C)Cn3cnc4ccccc43)c3ncccc23)c(=O)[nH]1` (racemic) [Compound 238, (±)-1-(1-(1H-benzo[d]imidazol-1-yl)propan-2-yl)-N-((4,6-dimethyl-2-oxo-1,2-dihydropyridin-3-yl)methyl)-2-methyl-1H-pyrrolo[2,3-b]pyridine-3-carboxamide], the results for the IC50 on EZH2 (rPRC2) (setting [4]) and on Y641N EZH2 (setting [5]) were 100 to 1000 nM and 1000 to 10000 nM, respectively. Besides, in assay [1] (HeLa cells, MSD, 96 hours), the EC50 lay in the range of 2000 to 10000 nM.
For `COc1cc(C)[nH]c(=O)c1CNC(=O)c1c(C)n(C(C)c2cccc(C#N)c2)c2ncccc12` (racemic) [Compound 239, (±)-1-(1-(3-cyanophenyl)ethyl)-N-((4-methoxy-6-methyl-2-oxo-1,2-dihydropyridin-3-yl)methyl)-2-methyl-1H-pyrrolo[2,3-b]pyridine-3-carboxamide], the IC50 on EZH2 (rPRC2) (setting [2]) and against Y641N EZH2 (setting [3]) was less than 100 nM throughout. For the same compound, the concentration for a half-maximal effect (EC50) in assay [1] (HeLa, 96 h) fell in the range of 400 to 2000 nM.

The values are drawn from patent US9371331B2, “Modulators of methyl modifying enzymes, compositions and uses thereof” (Constellation Pharmaceuticals, Inc., priority 2012, dated 2016).
